The text below walks through data of patent US11440880B2, “Thalidomide analogs and methods of use” (The USA, as represented by the Secretary, Department of …, priority 2015, dated 2022).

The test system of data set [1] is fli1:EGFP zebrafish embryos (intersegmental vessel growth). Kind of data set: fli1:EGFP zebrafish embryo angiogenesis assay. It is filed as in vivo. The arrangement: fli1:EGFP angiogenesis n (survived/tested): concentration or dose not given beside the values. Particulars: for minimal effective concentration: Danio rerio, lowest concentration producing an effect, compounds not producing an effect shown at the highest evaluated concentration; for fli1:EGFP angiogenesis n (survived/tested): embryos alive after 24 hours of exposure. In short, it runs like this: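 fli1:EGFP embryos grown 24 hpf, dechorionated and exposed to compound or vehicle over a range of concentrations for up to 24 h, with CPS49 as positive control. Imaged at 48 hpf for intersegmental vessel formation and growth; survival after 24 h exposure recorded, and values reflect the lowest concentration producing an effect.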

In data set [2] the test system is mpo:GFP zebrafish embryos (neutrophil migration to the wound site). Kind of data set: mpo:GFP zebrafish fin-clip neutrophil migration (inflammation) assay. The data set is classed as in vivo. Particulars: for minimal effective concentration: Danio rerio, Neutrophil, lowest concentration producing an effect, compounds not producing an effect shown at the highest evaluated concentration; for mpo:GFP inflammation n (survived/tested): embryos survived/tested at the concentration given. The arrangement: mpo:GFP inflammation n (survived/tested): concentration or dose not given beside the values. In short, it runs like this:
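Tg(mpo::EGFP) larvae tail-fin clipped (dorsal third removed) at 72 hpf, then immersed in compound or vehicle. Neutrophils migrating to the wound site counted from images 24 h later; at least 50% reduction scored as anti-inflammatory. Viability and morphology also assessed.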

SMILES strings stand for the structures.

With `O=C1CCC(N2C(=O)c3cccc([N+](=O)[O-])c3C2=O)C(=O)N1` (stereo not drawn) [Compound 5], in data set [1], the minimal effective concentration was 7.5 µg/mL and the “fli1:EGFP angiogenesis n (survived/tested)” value is recorded as 8/14. Besides, in data set [2], the minimal effective concentration is 10 µg/mL and the “mpo:GFP inflammation n (survived/tested)” value is reported as 28/28.
`O=C1NC(=S)CCC1N1C(=O)c2cccc([N+](=O)[O-])c2C1=O` (stereo not drawn) [Compound 7, 2-(2-Oxo-6-thioxo-3-piperidinyl)-4-nitro-1H-isoindole-1,3(2H)-dione]: in data set [1], the minimal effective concentration stood at 10 µg/mL and the “fli1:EGFP angiogenesis n (survived/tested)” value is given as 28/33. In data set [2], the minimal effective concentration is 10 µg/mL and the “mpo:GFP inflammation n (survived/tested)” value is on record as 29/29.
Turning to `Nc1cccc2c1CN(C1CCC(=O)NC1=O)C2=S` (stereo not drawn) [Compound 29], in data set [1], the minimal effective concentration is 10 µg/mL and the “fli1:EGFP angiogenesis n (survived/tested)” value is given as 6/17. Further, in data set [2], the minimal effective concentration is 5 µg/mL and the “mpo:GFP inflammation n (survived/tested)” value was 2/10.
For the molecule `Nc1cccc2c1CN(C13CC4CC(CC(C4)C1)C3)C2=O` [Compound 77, 2,3-Dihydro-4-amino-2-(tricyclo[3.3.1.1^3,7]dec-1-yl)-1H-isoindol-1-one], in data set [1], the minimal effective concentration was determined as 10 µg/mL and the “fli1:EGFP angiogenesis n (survived/tested)” value was 43/62. For the same molecule, in data set [2], the minimal effective concentration turned out to be 200 µg/mL and the “mpo:GFP inflammation n (survived/tested)” value was 5/21.
On to `CC(N1Cc2c(N)cccc2C1=O)C12CC3CC(CC(C3)C1)C2` (stereo not drawn) [Compound 81], for which, in data set [1], the minimal effective concentration came out at 50 µg/mL and the “fli1:EGFP angiogenesis n (survived/tested)” value is reported as 7/8. In addition, in data set [2], the minimal effective concentration amounted to 50 µg/mL and the “mpo:GFP inflammation n (survived/tested)” value is reported as 9/21.
With `O=C1c2ccccc2CN1C12CC3CC(CC(O)(C3)C1)C2` [Compound 86, 2,3-Dihydro-2-(tricyclo[3.3.1.1^3,7]dec-1-hydroxy-3-yl)-1H-isoindol-1-one], in data set [1], the minimal effective concentration was 200 µg/mL and the “fli1:EGFP angiogenesis n (survived/tested)” value is 4/12. Further, in data set [2], the minimal effective concentration came to 100 µg/mL and the “mpo:GFP inflammation n (survived/tested)” value is given as 14/19.

One may read the minimal effective concentration as the lowest level tested that produced the effect sought.
